Where a name gives a salt, the structure may show the parent alone. Some results are limits rather than exact numbers.

The target of the assay is T1, S1P1 (PathHunter CHO-K1 EDG1 β-Arrestin cell line) (Homo sapiens, UniProt P21453).
T1 construct: host or cells: PathHunter CHO-K1 EDG1 β-Arrestin cell line
T1 sequence (P21453 whole entry): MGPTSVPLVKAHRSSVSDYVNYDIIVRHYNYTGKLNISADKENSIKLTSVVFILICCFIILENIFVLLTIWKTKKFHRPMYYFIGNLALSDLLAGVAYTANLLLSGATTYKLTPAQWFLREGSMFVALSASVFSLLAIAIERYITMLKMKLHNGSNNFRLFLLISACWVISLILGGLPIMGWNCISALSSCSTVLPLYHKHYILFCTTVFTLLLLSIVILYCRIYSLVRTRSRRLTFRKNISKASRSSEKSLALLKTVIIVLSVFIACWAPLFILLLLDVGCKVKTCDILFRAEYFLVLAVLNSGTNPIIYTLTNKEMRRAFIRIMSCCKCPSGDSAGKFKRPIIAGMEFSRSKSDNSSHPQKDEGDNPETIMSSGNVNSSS
T1 sequence (P32121 whole entry partner): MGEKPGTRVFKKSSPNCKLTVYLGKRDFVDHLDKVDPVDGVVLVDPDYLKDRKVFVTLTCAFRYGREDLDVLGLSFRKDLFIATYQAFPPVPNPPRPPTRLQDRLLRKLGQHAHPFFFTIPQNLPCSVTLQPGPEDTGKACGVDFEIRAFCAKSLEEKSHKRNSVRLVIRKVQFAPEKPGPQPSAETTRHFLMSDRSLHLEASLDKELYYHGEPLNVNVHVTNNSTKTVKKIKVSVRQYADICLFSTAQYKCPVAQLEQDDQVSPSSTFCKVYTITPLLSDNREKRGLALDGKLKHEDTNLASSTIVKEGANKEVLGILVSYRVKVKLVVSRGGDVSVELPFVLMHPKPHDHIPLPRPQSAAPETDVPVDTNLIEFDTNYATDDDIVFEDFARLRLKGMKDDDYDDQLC
In words: S1P-1 β-Arrestin recruitment assay. Type of assay: cell-based. Conditions: CHO-K1 EDG1 β-Arrestin cells, chemi-luminescence. The method, then: S1P-1 β-Arrestin Recruitment Assay
β-Arrestin recruitment assays were carried out using the PathHunter CHO-K1 EDG1
β-Arrestin cell line (DiscoveRx Corporation) in a chemi-luminescence detection assay. This cell line stably expresses β-Arrestin 2 and S1P1 fused to complementing portions of β-galactosidase (‘EA’ and ‘pro-link’, respectively) which associate upon Arrestin recruitment to form functional β-galactosidase enzyme.
Cells were grown to 80% confluency in Growth Medium (F12 nutrient HAMS supplemented with 10% heat-inactivated USA FBS, 1% L-glutamax, 800 μg/ml Geneticin and 300 μg/ml Hygromycin). Cells were harvested from the flask using Enzyme Free Cell Dissociation Buffer (Gibco) and washed from flasks with Optimem solution (Gibco). Cells were then centrifuged at 1000 rpm for 2-3 min and resuspended in Assay Buffer (Prepared from Sigma kit H1387 supplemented with 20 ml/L HEPES, 4.7 ml/L NaHCO3, 0.1% pluronic acid F-68 solution, 0.1% BSA and adjusted to pH 7.4 using sodium hydroxide at 1×10^6 cells/ml. Cells were dispensed into assay plates containing compounds (100n1/well of a solution of test compound in 100% DMSO) at 1×10^4 cells/well and incubated at 37° C./5% CO2 for 90 min followed by 15 min at room temperature. 5 μl detection mix (1 part Galacton Star, 5 parts Emerald II, 19 parts Assay Buffer; DiscoveRx) were added per well and the plates incubated at room temperature for 60 min. Luminescence was quantified using a Viewlux plate reader.
The term EC50 denotes the concentration at which the effect is half-maximal. A lower EC50 goes with higher potency in that assay. In turn, `CC(C)Oc1ccc(-c2nc(-c3cccc4c3CCN(C[C@@H](O)CO)C4)no2)cc1C#N` [Example 178, 5-(3-{2-[(2R)-2,3-dihydroxypropyl]-1,2,3,4-tetrahydro-5-isoquinolinyl}-1,2,4-oxadiazol-5-yl)-2-[(1-methylethyl)oxy]benzonitrile hydrochloride] showed an EC50 of at most 10 nM.

With `Cc1c(-c2noc(-c3ccc(OC(C)C)c(Cl)c3)n2)ccc2c1CCN(C(=O)CNC(CO)CO)C2` [Example 190, 2-({2-[6-(5-{3-chloro-4-[(1-methylethyl)oxy]phenyl}-1,2,4-oxadiazol-3-yl)-5-methyl-3,4-dihydro-2(1H)-isoquinolinyl]-2-oxoethyl}amino)-1,3-propanediol hydrochloride], the EC50 is at most 100 nM.

For the compound `CC(C)Oc1ccc(-c2nc(-c3ccc4c(c3)CCN(C[C@@H](O)C(=O)N[C@H](C)CO)CC4)no2)cc1C#N` [Example 165, (2R)-3-[7-(5-{3-cyano-4-[(1-methylethyl)oxy]phenyl}-1,2,4-oxadiazol-3-yl)-1,2,4,5-tetrahydro-3H-3-benzazepin-3-yl]-2-hydroxy-N-(1R)-2-hydroxy-1-methylethyl]propanamide hydrochloride], the EC50 is at most 10 nM.

On to `COCCN1CCc2c(cccc2-c2nnc(-c3ccc(OC(C)C)c(C#N)c3)s2)C1` [Example 37, 2-[(1-Methylethyl)oxy]-5-(5-{2-[2-(methyloxy)ethyl]-1,2,3,4-tetrahydro-5-isoquinolinyl}-1,3,4-thiadiazol-2-yl)benzonitrile], for which the EC50 was at most 100 nM.

Turning to `Cc1c(-c2noc(-c3cnc(OC(C)C)c(C#N)c3)n2)ccc2c1CCN(CC(=O)N[C@@H](C)CO)C2` [Example 170, 2-[6-(5-{5-cyano-6-[(1-methylethyl)oxy]-3-pyridinyl}-1,2,4-oxadiazol-3-yl)-5-methyl-3,4-dihydro-2(1H)-isoquinolinyl]-N-[(1S)-2-hydroxy-1-methylethyl]acetamide hydrochloride], the EC50 was at most 10 nM.

`Cc1c(-c2noc(-c3ccc(OC(C)C)c(C#N)c3)n2)ccc2c1CCN(C(=O)CN[C@H](C)CO)C2` [Example 128] gave an EC50 of at most 10 nM.

Consider `Cc1c(-c2nnc(-c3ccc(OC(C)C)c(Cl)c3)s2)ccc2c1CCN(C(CO)CO)C2` [Example 203, 2-[6-(5-{3-chloro-4-[(1-methylethyl)oxy]phenyl}-1,3,4-thiadiazol-2-yl)-5-methyl-3,4-dihydro-2(1H)-isoquinolinyl]-1,3-propanediol hydrochloride], for which the EC50 was at most 100 nM.

The compound `CC(C)Oc1ccc(-c2nc(-c3cccc4c3CCN(C(CO)CO)C4)no2)cc1C#N` [Example 180, 5-(3-{2-[2-hydroxy-1-(hydroxymethyl)ethyl]-1,2,3,4-tetrahydro-5-isoquinolinyl}-1,2,4-oxadiazol-5-yl)-2-[(1-methylethyl)oxy]benzonitrile hydrochloride] showed an EC50 of at most 10 nM.

`Cc1c(-c2noc(-c3ccc(OC(C)C)c(C#N)c3)n2)ccc2c1CCN(C(=O)CNCCO)C2` [Example 131, formic acid-5-(3-{2-[N-(2-hydroxyethyl)glycyl]-5-methyl-1,2,3,4-tetrahydro-6-isoquinolinyl}-1,2,4-oxadiazol-5-yl)-2-[(1-methylethyl)oxy]benzonitrile (1:1)]: the EC50 was at most 10 nM.

Regarding `CC(C)Oc1ccc(-c2nnc(-c3ccc4c(c3)CCN(C(=O)CNCCO)CC4)s2)cc1C#N` [Example 200, 5-(5-{3-[N-(2-hydroxyethyl)glycyl]-2,3,4,5-tetrahydro-1H-3-benzazepin-7-yl}-1,3,4-thiadiazol-2-yl)-2-[(1-methylethyl)oxy]benzonitrile], the EC50 is at most 10 nM.

The compound `CC(C)Oc1ccc(-c2nc(-c3ccc4c(c3)CCN(C(C)C(=O)NCCO)CC4)no2)cc1C#N` (stereo not drawn) [Example 161, 2-[7-(5-{3-cyano-4-[(1-methylethyl)oxy]phenyl}-1,2,4-oxadiazol-3-yl)-1,2,4,5-tetrahydro-3H-3-benzazepin-3-yl]-N-(2-hydroxyethyl)propanamide hydrochloride] showed a half-maximal effective concentration (EC50) of at most 100 nM.

The compound `CC(C)Oc1ccc(-c2nc(-c3ccc4c(c3)CCN(C(C)C(=O)N[C@H](C)CO)CC4)no2)cc1C#N` (stereo partly drawn) [Example 162, 2-[7-(5-{3-cyano-4-[(1-methylethyl)oxy]phenyl}-1,2,4-oxadiazol-3-yl)-1,2,4,5-tetrahydro-3H-3-benzazepin-3-yl]-N-(1R)-2-hydroxy-1-methylethyl]propanamide hydrochloride] had an EC50 of at most 100 nM.

Regarding `Cc1c(-c2noc(-c3ccc(OC(C)C)c(C#N)c3)n2)ccc2c1CCN(C(=O)CNC[C@H](O)CO)C2` [Example 126, 5-[3-(2-{N-[(2S)-2,3-dihydroxypropyl]glycyl}-5-methyl-1,2,3,4-tetrahydro-6-isoquinolinyl)-1,2,4-oxadiazol-5-yl]-2-[(1-methylethyl)oxy]benzonitrile hydrochloride], the concentration giving a half-maximal response (EC50) is at most 10 nM.

Compound `CC(C)Nc1ncc(-c2nc(-c3ccc4c(c3)CCN(C(CO)CO)CC4)no2)cc1C#N` [Example 108, 5-(3-{3-[2-hydroxy-1-(hydroxymethyl)ethyl]-2,3,4,5-tetrahydro-1H-3-benzazepin-7-yl}-1,2,4-oxadiazol-5-yl)-2-[(1-methylethyl)amino]-3-pyridinecarbonitrile hydrochloride] showed a concentration giving a half-maximal response (EC50) of at most 100 nM.

`Cc1c(-c2noc(-c3ccc(OC(C)C)c(Cl)c3)n2)ccc2c1CCN(CC(=O)NCCO)C2` [Example 136, 2-[6-(5-{3-chloro-4-[(1-methylethyl)oxy]phenyl}-1,2,4-oxadiazol-3-yl)-5-methyl-3,4-dihydro-2(1H)-isoquinolinyl]-N-(2-hydroxyethyl)acetamide hydrochloride]: the EC50 is at most 10 nM.

As to `CC(C)Oc1ccc(-c2nc(-c3ccc4c(c3)CCN(C[C@@H](O)C(=O)NCCO)CC4)no2)cc1C#N` [Example 164, (2R)-3-[7-(5-{3-cyano-4-[(1-methylethyl)oxy]phenyl}-1,2,4-oxadiazol-3-yl)-1,2,4,5-tetrahydro-3H-3-benzazepin-3-yl]-2-hydroxy-N-(2-hydroxyethyl)propanamide hydrochloride], the EC50 is at most 10 nM.

In turn, `CC(C)Oc1ccc(-c2nc(-c3ccc4c(c3)CCN(CC(=O)NCCCO)CC4)no2)cc1C#N` [Example 157, 2-[7-(5-{3-cyano-4-[(1-methylethyl)oxy]phenyl}-1,2,4-oxadiazol-3-yl)-1,2,4,5-tetrahydro-3H-3-benzazepin-3-yl]-N-(3-hydroxypropyl)acetamide] showed a concentration giving a half-maximal response (EC50) of at most 10 nM.

With `Cc1c(-c2noc(-c3ccc(OC(C)C)c(C#N)c3)n2)ccc2c1CCN(C(=O)CN[C@@H](C)CO)C2` [Example 130, 5-[3-(2-{N-[(1S)-2-hydroxy-1-methylethyl]glycyl}-5-methyl-1,2,3,4-tetrahydro-6-isoquinolinyl)-1,2,4-oxadiazol-5-yl]-2-[(1-methylethyl)oxy]benzonitrile], the 50% effective concentration (EC50) is at most 10 nM.

For the compound `Cc1c(-c2noc(-c3ccc(OC(C)C)c(C#N)c3)n2)ccc2c1CCN(C(=O)CNC(CO)CO)C2` [Example 127, 5-[3-(2-{N-[2-hydroxy-1-(hydroxymethyl)ethyl]glycyl}-5-methyl-1,2,3,4-tetrahydro-6-isoquinolinyl)-1,2,4-oxadiazol-5-yl]-2-[(1-methylethyl)oxy]benzonitrile hydrochloride], the EC50 was at most 10 nM.

In the case of `N#Cc1cc(-c2nc(-c3ccc4c(c3)CCN(C(=O)CN)CC4)no2)ccc1OCC(F)(F)F` [Example 191, 5-[3-(3-glycyl-2,3,4,5-tetrahydro-1H-3-benzazepin-7-yl)-1,2,4-oxadiazol-5-yl]-2-[(2,2,2-trifluoroethyl)oxy]benzonitrile hydrochloride], the EC50 is at most 10 nM.

As for `Cc1c(-c2noc(-c3ccc(OC(C)C)c(Cl)c3)n2)ccc2c1CCN(CC(=O)NC[C@H](O)CO)C2` [Example 192, 2-[6-(5-{3-chloro-4-[(1-methylethyl)oxy]phenyl}-1,2,4-oxadiazol-3-yl)-5-methyl-3,4-dihydro-2(1H)-isoquinolinyl]-N-[(2S)-2,3-dihydroxypropyl]acetamide hydrochloride], the EC50 is at most 10 nM.

In turn, `Cc1c(-c2noc(-c3cnc(OC(C)C)c(Cl)c3)n2)ccc2c1CCN(C(CO)CO)C2` [Example 144, 2-[6-(5-{5-chloro-6-[(1-methylethyl)oxy]-3-pyridinyl}-1,2,4-oxadiazol-3-yl)-5-methyl-3,4-dihydro-2(1H)-isoquinolinyl]-1,3-propanediol] had an EC50 of at most 100 nM.

Regarding `CC(C)Oc1ccc(-c2nc(-c3cccc4c3CCN(C(=O)CCN)C4)no2)cc1C#N` [Example 88, 5-[3-(2-β-alanyl-1,2,3,4-tetrahydro-5-isoquinolinyl)-1,2,4-oxadiazol-5-yl]-2-[(1-methylethyl)oxy]benzonitrile hydrochloride], the EC50 is at most 100 nM.

Consider `CC(C)Oc1ccc(-c2nc(-c3ccc4c(c3)CCN(CCC(=O)N(C)C)CC4)no2)cc1C#N` [Example 23, 3-[7-(5-{3-Cyano-4-[(1-methylethyl)oxy]phenyl}-1,2,4-oxadiazol-3-yl)-1,2,4,5-tetrahydro-3H-3-benzazepin-3-yl]-N,N-dimethylpropanamide], for which the concentration giving a half-maximal response (EC50) was at most 100 nM.

These data come from patent US20120101083A1, “S1P1 AGONISTS COMPRISING A BICYCLIC N-CONTAINING RING” (GLAXO GROUP LIMITED, priority 2009, published 2012).
